Where two headings read alike, the source gives them in different places.

Series [1] deals with adult worker honeybees, Apis mellifera L. Description: Acute oral toxicity test in honeybees (OECD 213). The class given is in vivo. The method, then: Untreated 50% w/v sucrose solution with 0.2% of propanol-water solution (ratio 80%-20%) is used as a negative control.
The test item is diluted with aqueous sucrose solution 50% (w/v) to prepare the oral solutions. The bees used for the oral test are anesthetized with carbon dioxide for the time necessary to immobilize them and placed inside the test cages; 2 hours before the treatment they are starved. A volume of 200 μL (20 μL/bee) of treated diet is administered to each cage with a dispenser (e.g., a syringe without tip), weighed before and after filling.
The overall exposure period is 6 hours, during which consumption is monitored: the feeder is changed at the end of the six hours or once the treated diet has been consumed (usually within 3-4 hours). In both cases, the feeder is weighed and a new feeder with untreated 50% (w/v) sucrose solution is provided ad libitum, and the mean effective dose is calculated based on the actual consumption.

The test system is the same in series [2]. To be noted: contact. From the text: In accordance with OECD Test Guidelines No. 213 and 214, the test is considered valid if: (1) the average mortality of the control groups is ≤10% at the end of the test; and the average, control-corrected mortality of the reference item groups is ≥50% at the end of the test, at the tested dose (internal validity criteria according to POS BT200).
Young Apis mellifera L. worker honeybees are randomly collected in the morning of use or the day before from an adequately fed, healthy diseases-free and queen right beehive, not treated with chemical substances. Hives from an established apiary colony are used, and the colonies are inspected periodically, according to standard bee-keeping practices. All colonies are kept outside under field conditions and bees collect food from the environment. The last treatment against Varroa mites was done in November 2023. The bees are fed ad libitum with a water sucrose solution 50% w/v (or 500 g/L), prepared with tap water.
Adult worker honeybees are exposed to three increasing doses of the test item (see Table 2) by direct application to the thorax (droplets, see section 4.5.2). One control group is treated with propanol-water solution (ratio 80%-20%) in addition to test item groups.
Bee mortality is recorded after 4, 24 and 48 hours, and compared with the control value. If the mortality rate increases by more than 10% between 24 and 48 hours, whilst the control mortality rate remains ≤10%, the is extended to a maximum of 96 hours.
The test item is diluted in propanol-water solution (ratio 80%-20%) to prepare the contact solutions.
The bees used for the contact test are anaesthetized with carbon dioxide and individually treated by topical application of 2 μL of the test solutions onto the thorax using a micro applicator. The honeybees are then be moved to the cages and fed ad libitum with sucrose solution.
Disposable and well-ventilated cages with an internal volume not lower than 200 cm^3 are used. Each cage is equipped with a transparent lid, for a suitable observation of the bees from outside. The upper side of the cage has at least one hole for inserting the feeder: a syringe filled of 50% (w/v) aqueous sucrose solution is inserted in one hole.
The tests are conducted under the following conditions: (a) Temperature: 25.00[…]; (b) Relative humidity: 60.00[…], The honeybees are kept under constant darkness except during the assessments. Throughout the experimental phase, the temperature and relative humidity is continuously recorded with a dedicated data-logger with sensors located close to the test units.
The number of dead honeybees per cage is recorded after 4, 24 and 48 hours. If a prolonged observation period is required, further assessments are made every 24 hours, tip to a maximum duration of 96 hours. The amount of diet consumed per group is quantitatively estimated if treated diet will be left after 6 hours of exposure.
Data is summarized in tabular form, showing the number of live, dead and abnormal bees per experimental group. The mortality of each replicate is calculated as a percentage, comparing the number of dead bees to those introduced at the beginning. The mean value of the treated group is compared to the mean mortality of the respective control group(s) using the Abbott's formula modified by Schneider-Orelli (POS BT 200): […]

As to `N#Cc1nn(-c2c(Cl)cc(C(F)(F)F)cc2Cl)c2nc(O)cc(C(F)(F)F)c12` [Example 1, 1-(2,6-dichloro-4-(trifluoromethyl)phenyl)-6-hydroxy-4-(trifluoromethyl)-1H-pyrazolo[3,4-b]pyridine-3-carbonitrile], the “% CM (4 hours)” value is given as 0.0% in series [1] (group T1, dose 0.002 μg/bee); 0.0% in series [1] (group T2, dose 0.004 μg/bee); 0.0% in series [1] (group T3, dose 0.006 μg/bee); 0.0% in series [2] (group T1, dose 0.002 μg/bee); 0.0% in series [2] (group T2, dose 0.004 μg/bee); 0.0% in series [2] (group T3, dose 0.006 μg/bee). In addition, the “% CM (24 hours)” value in series [1] (group T1, dose 0.002 μg/bee) was 0.0%; in series [1] (group T2, dose 0.004 μg/bee), 19.2%; in series [1] (group T3, dose 0.006 μg/bee), 15.4%; in series [2] (group T1, dose 0.002 μg/bee), 7.1%; in series [2] (group T2, dose 0.004 μg/bee) it was 0.0%; in series [2] (group T3, dose 0.006 μg/bee), 50.0%. Also, the “% CM (48 hours)” value in series [1] (group T1, dose 0.002 μg/bee) was 0.0%; in series [1] (group T2, dose 0.004 μg/bee) it was 17.4%; in series [1] (group T3, dose 0.006 μg/bee), 13.0%; in series [2] (group T1, dose 0.002 μg/bee), 0.0%; in series [2] (group T2, dose 0.004 μg/bee), 0.0%; in series [2] (group T3, dose 0.006 μg/bee) it was 57.7%.

The record behind these values is patent publication US12419308B2, “Phenylpyrazole insecticide compounds and compositions” (priority 2023, dated 2025).
